This is an account of results in patent US9499495B2, “Quinazolines and azaquinazolines as dual inhibitors of RAS/RAF/MEK/ERK and PI3K/AKT/PTEN/mTOR pathways” (Asana Biosciences, LLC, priority 2013, dated 2016).

pIC50: −log10 of the molar value.

In one assay the test system is pERK in A375 cells. Briefly: In Cell Western (ICW) assay, pERK in A375 cells. Conditions: Homo sapiens, A-375, 3 h treatment. It counts as cell-based. The essentials: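 After a 3 h compound treatment at 37 °C, fixed RKO or A375 cells were probed for phospho-ERK1/2 (T202/Y204), phospho-S6RP or phospho-AKT T308 and detected with a Eu-tagged anti-rabbit antibody (ex 340/em 615 nm), with Hoechst signal as the cell-number correction. Inhibition was referenced to DMSO, and IC50 values came from sigmoidal dose-response curves.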

In another assay the target is T1, mTOR kinase (Homo sapiens, UniProt P42345).
T1 construct: purchased Millipore, US
T1 sequence (P42345 1362-2549 limits assumed): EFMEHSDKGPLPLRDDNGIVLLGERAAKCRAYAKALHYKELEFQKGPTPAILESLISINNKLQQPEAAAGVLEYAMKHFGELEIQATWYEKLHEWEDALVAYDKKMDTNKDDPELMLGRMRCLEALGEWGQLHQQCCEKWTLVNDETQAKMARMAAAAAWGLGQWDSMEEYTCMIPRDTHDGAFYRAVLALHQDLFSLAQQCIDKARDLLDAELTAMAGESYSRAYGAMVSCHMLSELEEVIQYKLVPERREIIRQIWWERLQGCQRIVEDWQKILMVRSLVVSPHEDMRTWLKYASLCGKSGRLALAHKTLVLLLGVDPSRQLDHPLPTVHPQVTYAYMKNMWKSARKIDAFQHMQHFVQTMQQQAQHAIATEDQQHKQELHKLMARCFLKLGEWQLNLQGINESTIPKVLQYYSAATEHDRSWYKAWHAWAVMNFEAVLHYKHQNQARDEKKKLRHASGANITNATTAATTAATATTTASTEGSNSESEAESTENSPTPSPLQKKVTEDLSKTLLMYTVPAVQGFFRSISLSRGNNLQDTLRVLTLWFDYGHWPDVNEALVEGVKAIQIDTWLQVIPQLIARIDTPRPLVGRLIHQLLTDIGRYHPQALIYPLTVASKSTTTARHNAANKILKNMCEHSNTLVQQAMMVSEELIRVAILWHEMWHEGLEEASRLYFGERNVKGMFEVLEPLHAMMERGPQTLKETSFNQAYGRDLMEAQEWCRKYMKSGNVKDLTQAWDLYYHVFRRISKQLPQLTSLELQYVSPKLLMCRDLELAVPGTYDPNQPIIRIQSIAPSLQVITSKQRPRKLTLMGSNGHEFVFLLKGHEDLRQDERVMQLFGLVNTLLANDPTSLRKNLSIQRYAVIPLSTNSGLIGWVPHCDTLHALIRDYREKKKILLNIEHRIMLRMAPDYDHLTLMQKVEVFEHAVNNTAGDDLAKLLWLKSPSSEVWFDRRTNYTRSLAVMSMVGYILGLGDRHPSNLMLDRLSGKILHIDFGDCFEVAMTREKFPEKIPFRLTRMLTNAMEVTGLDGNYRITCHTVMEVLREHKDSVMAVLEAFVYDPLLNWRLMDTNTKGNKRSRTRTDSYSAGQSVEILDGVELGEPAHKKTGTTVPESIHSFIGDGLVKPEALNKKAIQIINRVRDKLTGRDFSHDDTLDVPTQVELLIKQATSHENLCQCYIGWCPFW
Briefly: mTOR kinase TR-FRET assay. The assay is classed as biochemical. The essentials: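 TR-FRET with ULight-p70 S6K (Thr 389) peptide (50 nM) and 20 μM ATP in 50 mM HEPES pH 7.5, 1 mM EGTA, 3 mM MnCl2; compound pre-incubated with enzyme before substrate addition, reaction at rt, EDTA-stopped. Eu anti-phospho antibody read 665/615 nm; IC50 from sigmoidal dose-response fit.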
A general note: Time-resolved FRET reads energy transfer from a long-lived donor to a nearby acceptor.

The next assay concerns the target T2, B-RAFV600E (Homo sapiens, UniProt P15056, V600E).
T2 construct: purchased Millipore, USA 14-557
Briefly: B-RAFV600E radiometric assay. It counts as biochemical. Conditions: read-out: Kinase assay B-Raf. The essentials:
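B-RAFV600E was preincubated 45 min at rt with compound in 1% DMSO. MEK-K97M (0.5 μg), 5 μM final cold ATP and [γ-32P]ATP were then added for 2 h at rt. Phosphorylated MEK was captured on P81 paper and scintillation-counted; IC50 came from a sigmoidal dose-response fit.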

The next assay deals with T3, PI3Kα (Homo sapiens, UniProt P42336).
T3 construct: made in house; host or cells: SF9 cells
T3 sequence (P42336 whole entry, species assumed): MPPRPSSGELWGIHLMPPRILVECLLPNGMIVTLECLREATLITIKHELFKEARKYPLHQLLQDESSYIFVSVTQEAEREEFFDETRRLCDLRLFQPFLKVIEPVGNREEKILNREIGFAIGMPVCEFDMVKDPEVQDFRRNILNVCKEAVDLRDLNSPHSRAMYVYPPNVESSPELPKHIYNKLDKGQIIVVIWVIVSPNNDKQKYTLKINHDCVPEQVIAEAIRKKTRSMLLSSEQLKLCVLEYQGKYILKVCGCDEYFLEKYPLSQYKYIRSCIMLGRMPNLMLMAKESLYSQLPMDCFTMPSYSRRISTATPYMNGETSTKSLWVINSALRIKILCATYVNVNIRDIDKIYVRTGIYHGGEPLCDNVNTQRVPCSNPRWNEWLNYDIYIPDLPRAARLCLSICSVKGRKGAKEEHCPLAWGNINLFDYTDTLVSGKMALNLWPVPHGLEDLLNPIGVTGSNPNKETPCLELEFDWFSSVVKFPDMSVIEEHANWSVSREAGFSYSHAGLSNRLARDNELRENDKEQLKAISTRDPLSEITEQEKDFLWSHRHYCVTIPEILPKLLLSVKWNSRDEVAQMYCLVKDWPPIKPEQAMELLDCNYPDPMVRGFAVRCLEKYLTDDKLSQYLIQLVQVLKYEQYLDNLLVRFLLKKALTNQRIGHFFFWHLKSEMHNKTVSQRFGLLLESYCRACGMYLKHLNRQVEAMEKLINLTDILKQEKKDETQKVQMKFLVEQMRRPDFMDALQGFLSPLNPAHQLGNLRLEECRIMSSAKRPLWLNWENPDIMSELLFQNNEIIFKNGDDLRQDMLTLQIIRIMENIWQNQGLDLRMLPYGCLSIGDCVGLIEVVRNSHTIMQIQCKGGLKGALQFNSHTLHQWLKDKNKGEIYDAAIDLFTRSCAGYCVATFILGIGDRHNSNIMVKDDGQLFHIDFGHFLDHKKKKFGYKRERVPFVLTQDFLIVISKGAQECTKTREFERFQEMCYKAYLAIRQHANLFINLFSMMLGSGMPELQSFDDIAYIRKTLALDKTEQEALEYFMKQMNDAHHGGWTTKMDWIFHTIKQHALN
T3 sequence (P27986 whole entry partner, species assumed): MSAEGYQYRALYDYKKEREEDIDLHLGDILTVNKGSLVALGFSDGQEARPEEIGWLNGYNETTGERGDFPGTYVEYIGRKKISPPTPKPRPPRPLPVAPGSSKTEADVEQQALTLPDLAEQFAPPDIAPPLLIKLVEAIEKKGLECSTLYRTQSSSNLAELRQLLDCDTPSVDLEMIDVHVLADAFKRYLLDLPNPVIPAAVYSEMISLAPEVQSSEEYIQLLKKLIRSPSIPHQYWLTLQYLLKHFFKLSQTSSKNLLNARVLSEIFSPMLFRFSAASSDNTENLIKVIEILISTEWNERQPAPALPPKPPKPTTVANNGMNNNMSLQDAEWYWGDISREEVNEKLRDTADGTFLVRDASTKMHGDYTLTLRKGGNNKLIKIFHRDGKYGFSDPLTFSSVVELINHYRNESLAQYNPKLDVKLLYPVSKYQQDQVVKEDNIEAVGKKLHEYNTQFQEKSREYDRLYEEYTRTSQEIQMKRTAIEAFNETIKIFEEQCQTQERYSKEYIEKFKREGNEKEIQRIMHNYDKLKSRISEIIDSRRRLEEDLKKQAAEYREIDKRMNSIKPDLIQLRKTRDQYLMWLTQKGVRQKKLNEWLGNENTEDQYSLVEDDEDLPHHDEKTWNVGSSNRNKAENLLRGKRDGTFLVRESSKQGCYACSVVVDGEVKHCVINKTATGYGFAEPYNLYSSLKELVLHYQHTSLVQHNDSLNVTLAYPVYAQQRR
Briefly: PI3 Kinase alpha TR-FRET assay. The assay is classed as biochemical. How it is done:
Compound inhibition for PI3Kα was determined in a homogeneous TR-FRET assay using a PI3Kα assay kit (Millipore, US, Catalog #33-016). The PI3 kinase catalyzes phosphorylation of […] (PIP2) to phosphatidylinositol 3,4,5-trisphosphate (PIP3) in the presence of ATP and Mg^2+. The PIP3 product is detected by displacement of biotin-PIP3 from an energy transfer complex consisting of Europium labeled anti-GST monoclonal antibody, a GST-tagged pleckstrin homology (PH) domain, biotinylated PIP3 and Streptavidin-Allophycocyanin (APC). Excitation of Europium in the complex results in an energy transfer to the APC and a fluorescence emission at 665 nm.
Compounds tested were dissolved in DMSO and directly distributed into 384-well plates at a volume of 0.5 μL. P110/P85a/PIP2 mixture (14.5 μL) was added to compound wells and incubated for 30 min at rt […]. P110/P85a was expressed in SF9 cells and purified in-house. 5 ng P110/P85a was used in the assay. The kinase reaction was started by the addition of ATP. The assay concentrations of both PIP2 and ATP were 40 μM. The reaction mixture was incubated for 30 min and was terminated by the addition of stop mix and detection mix. Fluorescence was measured at 615 and 665 nm upon excitation at 340 nm in a Victor V5 fluorometer (Perkin Elmer, US). The fluorescence emission ratio at 665 to 615 nm, proportional to the kinase activity, was plotted against the compound concentration to generate dose-response curves and IC50 values were determined.

A further assay relates to RKO cells. Briefly: XTT assay for cell viability, RKO cells. It counts as cell-based. The conditions noted are these: Homo sapiens, 72 h. How it is done: Cell lines (A375 ATCC No. CRL-1619, A2058 ATCC No. CRL-11147 and RKO ATCC No. CRL-2577, American Type Culture Collection (ATCC), Manassas Va.) once attaining ˜80% confluency were trypsinized, centrifuged and resuspended in fresh media. Cells (1000-2000/per well) were seeded in 96-well plate and incubated over-night at 37° C. in a 5% CO2 incubator. Compound dilutions were prepared in 100% DMSO followed by dilutions in the respective media. The cells were treated with NCEs for 72 h at 37° C. in 5% CO2 incubator. After 72 h, freshly prepared XTT (1 mg/ml)/PMS (25 μM) solution was added, incubated for 2 to 3 h at 37° C. and the absorbance was measured at 450 nm using an ELISA plate reader. Keeping DMSO control as 100%, the effect of the compound to inhibit the cell proliferation was calculated and the GI50 values were determined using sigmoidal dose response curve fit in GraphPad Prism® v5 software.

In the next assay the test system is A375 cells. Briefly: XTT assay for cell viability, A375 cells. The assay is classed as cell-based. The conditions noted are these: Homo sapiens, A-375, 72 h. The essentials:
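GI50 derived by sigmoidal dose-response fitting of proliferation normalised to DMSO control (100%). Readout: A450 after 2-3 h with XTT (1 mg/ml)/PMS (25 μM), following 72 h compound treatment at 37° C., 5% CO2 of cells plated at 1000-2000 per well the previous day.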
Background: Tetrazolium assays rely on reduction of a dye to a coloured formazan, in cell work by metabolically active cells.

T2 sequence (P15056 416-766 V600E limits assumed): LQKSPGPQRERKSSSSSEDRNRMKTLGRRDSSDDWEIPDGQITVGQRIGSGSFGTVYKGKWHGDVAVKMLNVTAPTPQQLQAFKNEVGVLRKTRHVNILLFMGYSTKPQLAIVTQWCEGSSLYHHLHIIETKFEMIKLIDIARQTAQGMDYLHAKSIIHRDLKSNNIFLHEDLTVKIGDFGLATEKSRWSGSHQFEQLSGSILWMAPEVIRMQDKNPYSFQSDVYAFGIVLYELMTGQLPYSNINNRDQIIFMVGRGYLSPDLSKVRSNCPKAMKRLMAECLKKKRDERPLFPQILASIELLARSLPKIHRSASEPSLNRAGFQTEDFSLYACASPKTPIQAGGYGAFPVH

On to `C[C@H]1COCCN1c1nc(-c2ccc(N)nc2)nc2ccc(-c3cccc(NS(=O)(=O)CCCF)c3F)nc12` [Example 127, (S)-N-(3-(2-(6-aminopyridin-3-yl)-4-(3-methylmorpholino)pyrido[3,2-d]pyrimidin-6-yl)-2-fluorophenyl)-3-fluoropropane-1-sulfonamide], for which the pIC50 is 6.00 to 7.00 in the assay with pERK in A375 cells, 7.00 to 9.00 at mTOR kinase, 6.00 to 7.00 on B-RAFV600E and 7.00 to 9.00 against PI3Kα.

As for `CNc1ccc(-c2nc(N3CCOCC3)c3cc(-c4cccc(NS(=O)(=O)CCCF)c4F)cc(OC)c3n2)cn1` [Example 50, 3-fluoro-N-(2-fluoro-3-(8-methoxy-2-(6-(methylamino)pyridin-3-yl)-4-morpholinoquinazolin-6-yl)phenyl)propane-1-sulfonamide], the pIC50 in the assay with pERK in A375 cells was 7.00 to 9.00; in the assay with RKO cells, 6.00 to 7.00; against mTOR kinase, 7.00 to 9.00; on B-RAFV600E it was 7.00 to 9.00; in the assay with A375 cells it was 7.00 to 9.00.

For `O=S(=O)(CCCF)Nc1cccc(-c2ccc3nc(-c4cnc(NCCCO)nc4)nc(N4CCOCC4)c3n2)c1F` [Example 110, 3-fluoro-N-(2-fluoro-3-(2-(2-((3-hydroxypropyl)amino)pyrimidin-5-yl)-4-morpholinopyrido[3,2-d]pyrimidin-6-yl)phenyl)propane-1-sulfonamide], the pIC50 in the assay on pERK in A375 cells was 7.00 to 9.00; at B-RAFV600E, 7.00 to 9.00; in the assay with A375 cells, 5.00 to 6.00; against PI3Kα, 6.00 to 7.00.

For `CNc1ncc(-c2nc(N3CCOCC3)c3cc(-c4cccc(NS(=O)(=O)CCCF)c4F)cc(OC)c3n2)cn1` [Example 51, 3-fluoro-N-(2-fluoro-3-(8-methoxy-2-(2-(methylamino)pyrimidin-5-yl)-4-morphoIinoquinazolin-6-yl)phenyl)propane-1-sulfonamide], the pIC50 in the assay on pERK in A375 cells is 7.00 to 9.00; in the assay with RKO cells it was 6.00 to 7.00; at mTOR kinase, 7.00 to 9.00; on B-RAFV600E, 7.00 to 9.00; in the assay with A375 cells it was 7.00 to 9.00.

For the compound `Cc1cc(N)ncc1-c1nc(N2CCOC[C@@H]2C)c2nc(-c3cccc(NS(=O)(=O)CCCF)c3F)ccc2n1` [Example 130, (S)-N-(3-(2-(6-amino-4-methylpyridin-3-yl)-4-(3-methylmorpholino)pyrido[3,2-d]pyrimidin-6-yl)-2-fluorophenyl)-3-fluoropropane-1-sulfonamide], the pIC50 is 6.00 to 7.00 with pERK in A375 cells, 6.00 to 7.00 on mTOR kinase, 6.00 to 7.00 at B-RAFV600E and 7.00 to 9.00 against PI3Kα.

For the compound `C[C@@H]1COCCN1c1nc(-c2ccc(N)nc2)nc2c(OC3CCCC3)cc(-c3cccc(NS(=O)(=O)CCCF)c3F)cc12` [Example 62, (R)-N-(3-(2-(6-aminopyridin-3-yl)-8-(cyclopentyloxy)-4-(3-methylmorpholino)quinazolin-6-yl)-2-fluorophenyl)-3-fluoropropane-1-sulfonamide], the pIC50 with pERK in A375 cells is 7.00 to 9.00; in the assay with RKO cells, 6.00 to 7.00; against mTOR kinase, 7.00 to 9.00; on B-RAFV600E, 7.00 to 9.00; in the assay with A375 cells it was 7.00 to 9.00.

On to `CC(C)Nc1ccc(-c2nc(N3CCOCC3)c3nc(-c4cccc(NS(=O)(=O)CCCF)c4F)ccc3n2)cn1` [Example 114, 3-fluoro-N-(2-fluoro-3-(2-(6-(isopropylamino)pyridin-3-yl)-4-morpholinopyrido[3,2-d]pyrimidin-6-yl)phenyl)propane-1-sulfonamide], for which the pIC50 was 7.00 to 9.00 in the assay on pERK in A375 cells; 6.00 to 7.00 in the assay on RKO cells; 6.00 to 7.00 against mTOR kinase; 7.00 to 9.00 on B-RAFV600E; 6.00 to 7.00 in the assay on A375 cells.

`Cc1nc(N)ncc1-c1nc(N2CCOC[C@@H]2C)c2nc(-c3cccc(NS(=O)(=O)CCCF)c3F)ccc2n1` [Example 131, (S)-N-(3-(2-(2-amino-4-methylpyrimidin-5-yl)-4-(3-methylmorpholino)pyrido[3,2-d]pyrimidin-6-yl)-2-fluorophenyl)-3-fluoropropane-1-sulfonamide]: the pIC50 in the assay with pERK in A375 cells is 6.00 to 7.00; on mTOR kinase, 6.00 to 7.00; at B-RAFV600E, 6.00 to 7.00; against PI3Kα, 7.00 to 9.00.

Regarding `CCCS(=O)(=O)Nc1cccc(-c2cc(OC)c3nc(-c4ccc(NCCN)nc4)nc(N4CCOCC4)c3c2)c1F` [Example 3], the pIC50 was 7.00 to 9.00 with pERK in A375 cells, 7.00 to 9.00 at B-RAFV600E, 5.00 to 6.00 in the assay on A375 cells and 6.00 to 7.00 at PI3Kα.

For `CCCS(=O)(=O)Nc1cccc(-c2cc(OC)c3nc(-c4cnc(N)c(C)c4)nc(N4CCOCC4)c3c2)c1F` [Example 26, N-(3-(2-(6-amino-5-methylpyridin-3-yl)-8-methoxy-4-morpholinoquinazolin-6-yl)-2-fluorophenyl)propane-1-sulfonamide], the pIC50 with pERK in A375 cells, at B-RAFV600E, with A375 cells and against PI3Kα was 6.00 to 7.00 in each case.

Consider `CNc1ncc(-c2nc(N3CCOCC3)c3nc(-c4cccc(NS(=O)(=O)CCCF)c4F)ccc3n2)cn1` [Example 121, 3-fluoro-N-(2-fluoro-3-(2-(2-(methylamino)pyrimidin-5-yl)-4-morpholinopyrido[3,2-d]pyrimidin-6-yl)phenyl)propane-1-sulfonamide], for which the pIC50 in the assay on pERK in A375 cells is 6.00 to 7.00; against mTOR kinase it was 6.00 to 7.00; at B-RAFV600E, 7.00 to 9.00; against PI3Kα, 7.00 to 9.00.

Consider `C[C@H]1COCCN1c1nc(-c2cnc(N)nc2)nc2ccc(-c3cccc(NS(=O)(=O)CCCF)c3F)nc12` [Example 128, (S)-N-(3-(2-(2-aminopyrimidin-5-yl)-4-(3-methylrnorpholino)pyrido[3,2-d]pyrimidin-6-yl)-2-fluorophenyl)-3-fluoropropane-1-sulfonamide], for which the pIC50 with pERK in A375 cells was 6.00 to 7.00; at mTOR kinase, 6.00 to 7.00; on B-RAFV600E, 7.00 to 9.00; on PI3Kα, 7.00 to 9.00.

In the case of `COc1cc(-c2c(F)ccc(NS(=O)(=O)CCCF)c2F)cc2c(N3CCOCC3)nc(-c3cccc4[nH]ncc34)nc12` [Example 81, N-(3-(2-(1H-indazol-4-yl)-8-methoxy-4-morpholinoquinazolin-6-yl)-2,4-difluorophenyl)-3-fluoropropane-1-sulfonamide], the pIC50 in the assay on pERK in A375 cells was 7.00 to 9.00; at B-RAFV600E, 7.00 to 9.00; with A375 cells, 6.00 to 7.00; at PI3Kα it was 6.00 to 7.00.

For the compound `Cc1cc(-c2cccc(NS(=O)(=O)CCCF)c2F)cc2c(N3CCOCC3)nc(-c3cccc4[nH]ncc34)nc12` [Example 118, N-(3-(2-(1H-indazol-4-yl)-8-methyl-4-morpholinoquinazolin-6-yl)-2-fluorophenyl)-3-fluoropropane-1-sulfonamide], the pIC50 is 5.00 to 6.00 in the assay with RKO cells, 6.00 to 7.00 against mTOR kinase, 7.00 to 9.00 at B-RAFV600E and 6.00 to 7.00 in the assay with A375 cells.

With `CCCS(=O)(=O)Nc1cccc(-c2cc(OC)c3nc(-c4cccc5[nH]ncc45)nc(N4CCOCC4)c3c2)c1F` [Example 2, N-(3-(2-(1H-indazol-4-yl)-8-methoxy-4-morpholinoquinazolin-6-yl)-2-fluorophenyl) propane-1-sulfonamide], the pIC50 in the assay with pERK in A375 cells is 6.00 to 7.00; at B-RAFV600E it was 7.00 to 9.00; in the assay with A375 cells it was 6.00 to 7.00; against PI3Kα, 6.00 to 7.00.
